Measured values reported in patent US20220142209A1, “METHODS AND COMPOSITIONS FOR IMPROVING THE TASTE OF DIET COLA SODAS AND OTHER BEVERAGES” (priority 2019, published 2022).

Key:
[1] = Informal taste test of additives mixed into DIET COKE; format: in vivo, people
Excerpt: To provide enabling context for some of the embodiments disclosed herein, simple formulations are described here (with more enablement in the Exemplary Embodiments below). Pour into a cup about 7.5 ounces of a DIET COKE® that includes just aspartame. Mix in about one to two teaspoons of ENACO ERC-A20 decocainized liquid coca leaf extract, both liquids at room temperature. […] Adding a bag of sugar (5 grams) results in an even more pleasant taste while providing a cola soda with 80% less sugar. Using glucose instead of sugar (sucrose) produce a fructose-free, low-sugar, cola soda.
(§1) Taste and aroma are not separate sensory experiences. For example, when many people are afflicted with the common cold, and have stuffy noses, they can lose some or all of the taste of foods. This is attributed to the odor sensors in the nose being blocked. Also, when many people eat foods, they can have a time dependent sensory experience, as the (chewed) food travels to the back of the mouth and then some of the aromas enter the back of the nasal cavity, due to retronasal smell (versus orthonasal smell due to aromas entering the front of the nasal cavity, for example, when you sniff a rose). Thus, in many of the embodiments disclosed herein, the term “taste and/or aroma” is used. Also, the Exemplary Embodiments that follows, statements in changes in taste and/or aroma are based on the opinions of a few people. Not all people drinking the embodiments disclosed herein will experience the same degree of improvement in taste and/or aroma.
For the exemplary embodiments that follow, the examples are performed with all liquids at room temperature. Sodas typically taste more pleasant at lower temperatures (sodas retain carbonation better at lower temperatures, which creates a better taste for many people). Any improvements in taste and/or aroma resulting from any of the following embodiments at room temperature are similar, if not more pleasant, at lower temperatures down to freezing. Tastes and/or aromas can also vary due to the use of soda container: glass, plastic, metal or paper. There are many who think that cola sodas taste best when consumed from glass bottles. For many of the exemplary embodiments disclosed herein, Bodum PAVINA® Coffee Mugs, double-wall insulated glass mugs, 8-ounce size, are used.
One embodiment of an improved cola beverage product is understood with the following exemplary method and resulting exemplary article of manufacture. Pour about 7.5 ounces of DIET COKE® (about 220 grams—about 222 milliliters) into a container such as a cup. Mix in about one half teaspoon to two teaspoons (about 2.5 to 10 grams—about 2.5 to 10 milliliters) of coca leaf extract, for example, the ERC-A20 liquid coca extract available from ENACO (Lima, Peru) or its equivalents. […] Any coca leaf extract with similar chemical components (see FIG. 4 and FIG. 11, for example) to ERC-A20 (the version of the extract circa 2018/2019) can be used, and the extracts can be added to other diet sodas such as COKE ZERO® and COKE ZERO SUGAR®.

[2] = adults and children; cited from earlier work
[3] = Taste test of ethyl benzoate in hot unsweetened cacao drink; format: in vivo, people; conditions: 5 ml of 24 micrograms per milliliter solution in one cup hot water with about two tablespoons unsweetened cacao powder
Excerpt: as §1
Some of the unpleasant taste of unsweetened cacao can be removed by using ethyl benzoate. In one exemplary embodiment to improve the taste of any brand of unsweetened cacao and/or chocolate made therefrom, prepare one cup of hot water and add about two tablespoons of unsweetened HERSHEY® cacao powder. Mix in 5 milliliters (one teaspoon) of a liquid (e.g., water) solution that has, for example, 24 micrograms per milliliters of ethyl benzoate. […]

## C=CC(C)(O)CCC=C(C)C (stereo not shown) [linalool]
[1]; one teaspoon, 40 micrograms per milliliter, in 220 ml Diet Coke
  change in unpleasantness: little-to-no change

## O=C([O-])c1ccccc1.[Na+] [sodium benzoate]
[1]; 1/32nd teaspoon (230 milligrams) in 220 ml DIET COKE
  Coca-Cola taste: No improvement

## OC[C@@H](O)[C@H](O)[C@@H](O)CO [xylitol]
[1]; one teaspoon powdered xylitol dissolved in 1.5 teaspoons ERC-A20, added to 220 ml DIET COKE
  taste of resulting beverage: An improvement in taste is experienced
[2]
  safe amounts: less than 20 grams a day

## CC1=CCC(C(C)(C)O)CC1 (stereo not drawn) [alpha-terpineol]
[1]; about one teaspoon of 48 micrograms/milliliter water solution in 220 ml DIET COKE
  experience of drinking modified DIET COKE: more pleasant

## CC1=CCC(C(C)C)=CC1 [gamma-terpinene]
[1]; one half teaspoon, 40 micrograms/milliliter, in 220 ml DIET COKE
  taste of resulting DIET COKE: while more pleasant as seen with adding alpha-terpineol, also has less of a “coca cola” taste

## CCOC(=O)c1ccccc1 [ethyl benzoate]
[1]; about 5 ml (one teaspoon) of about 24 micrograms per milliliter solution in 7.5 ounces DIET COKE
  taste and/or aroma versus untreated DIET COKE: more pleasant
[1]; solution of just ethyl benzoate instead of liquid coca leaf extract, about 7.5 ounces DIET COKE
  taste of resulting beverage: improvement in taste, but lesser of an improvement than with the leaf extract
[3]
  pleasantness of resulting beverage: more pleasant

## COC(=O)c1ccccc1 [methyl benzoate]
[1]; about 5 ml of solution of about 24 micrograms per milliliter
  DIET COKE taste: taste similar to that of using ethyl benzoate
